Key:
[1] = biological target: human recombinant sGC enzyme (Homo sapiens (Human), UniProt Q02108+Q02153); assay: SEC competition binding assay with [3H] Compound B radioligand; settings: displacement of 1.6 nM [3H] Compound B, 24 h at 37° C.
Outline: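 Competition format: [3H] Compound B (1.6 nM) displaced from human recombinant sGC over 24 h at 37° C. in triethanolamine pH 7.4 buffer with MgCl2, BSA, DTT, 300 μM DETA/NO and 400 μM GTP (1% DMSO). Gel-filtration eluates counted by liquid scintillation; 1 μM Compound B defined non-specific binding; Ki by one-site fit.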

sGC α1/β1 heterodimer = sGC α1/β1 heterodimer (Homo sapiens (Human), UniProt Q02108+Q02153); assay: Cell-based sGC functional assay (CASA assay), cGMP by HTRF; settings: CHO-K1/sGC cells; for Emax: CHO-K1, cGMP production as percentage of maximum of compound A (set to 100%), read-out: % Activation; for EC50: inflection point of cGMP production, 4P fit, read-out: IP; for % Activation: cGMP production as percentage of maximum of compound A (set to 100%)
Outline: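 cGMP made in CHO-K1/sGC (human α1/β1) cells is read by HTRF after compound treatment for 1 hr at 37° C, following 30 min at 25° C with or without 1 μM DETA-NO; IBMX 0.5 mM present. Values are % of standard compound maximum; 4P fit.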

| Compound | Ki [1] [nM] | Emax (sGC α1/β1 heterodimer) [%] | EC50 (sGC α1/β1 heterodimer) [nM] | % Activation (sGC α1/β1 heterodimer) [%] |
| --- | --- | --- | --- | --- |
| CC1(c2ccc(Cl)c(O)c2)C(=O)Nc2nc(-c3cn4ccnc4c(Cc4ccc(F)cc4)n3)nc(NCC(O)C(F)(F)F)c21 (single isomer, unassigned) [Example 132-AA, 5-(4-Chloro-3-hydroxy-phenyl)-2-{8-[(4-fluoro-phenyl)methyl]imidazo-[1,2-a]pyrazin-6-yl}-5-methyl-4-[(3,3,3-trifluoro-2-hydroxy-propyl)amino]-5,7-dihydro-6H-pyrrolo-[2,3-d]-pyrimidin-6-one] | 1.21 | 99 | 746 |  |
| CC1(c2ccc(Cl)c(O)c2)C(=O)Nc2nc(-c3cn4ncnc4c(Cc4ccc(F)cc4)n3)nc(N)c21 (stereo not drawn) [Example 26-A, 4-Amino-5-(4-chloro-3-hydroxyphenyl)-2-{8-[(4-fluorophenyl)methyl]-[1,2,4]triazolo[1,5-a]pyrazin-6-yl}-5-methyl-5,7-dihydro-6H-pyrrolo[2,3-d]pyrimidin-6-one] | 0.276 | 105 | 426 |  |
| CCCCc1nc(-c2nc(N)c3c(n2)NC(=O)C3(C)c2cc(O)ccn2)cn2ncnc12 (stereo not drawn) [Example 118-B, 4-Amino-2-(8-butyl-[1,2,4]triazolo[1,5-a]-pyrazin-6-yl)-5-(4-hydroxypyridin-2-yl)-5-methyl-5,7-dihydro-6H-pyrrolo[2,3-d]-pyrimidin-6-one] | 7.95 | 103 | 457 |  |
| CCCCc1nc(-c2nc(N)c3c(n2)NC(=O)C3(C)c2ccc(O)cc2)cn2ncnc12 (stereo not drawn) [Example 70-B, 4-Amino-2-(8-butyl-[1,2,4]triazolo[1,5-a]pyrazin-6-yl)-5-(4-hydroxyphenyl)-5-methyl-5,7-dihydro-6H-pyrrolo[2,3-d]pyrimidin-6-one] | 3.96 | 81 | 32 |  |
| CC1(c2cc(O)c(C#N)c(Cl)c2)C(=O)Nc2nc(-c3cn4ccnc4c(CC4CCCCC4)n3)nc(N)c21 (stereo not drawn) [Example 142-A, 4-(4-amino-2-{8-(cyclohexylmethyl)-imidazo[1,2-a]pyrazin-6-yl}-5-methyl-6-oxo-6,7-dihydro-5H-pyrrolo-[2,3-d]pyrimidin-5-yl)-2-chloro-6-hydroxy-benzonitrile] | 1.14 | 74 | 3530 |  |
| CC1(c2ccc(Cl)c(O)c2)C(=O)Nc2nc(-c3cn4ccnc4c(Cc4cccc(F)c4)n3)nc(NCC(O)C(F)(F)F)c21 (stereo not drawn) [Example 131-AB, 5-(4-Chloro-3-hydroxyphenyl)-2-{8-[(3-fluorophenyl)methyl]imidazo[1,2-a]pyrazin-6-yl}-5-methyl-4-[(3,3,3-trifluoro-2-hydroxypropyl)amino]-5,7-dihydro-6H-pyrrolo[2,3-d]pyrimidin-6-one] | 0.347 |  | 292 | 96 |
| CC1(c2ccc(Cl)c(O)c2)C(=O)Nc2nc(-c3cn4ncnc4c(CCC(F)(F)C(F)(F)F)n3)nc(NCC(O)C(F)(F)F)c21 (single isomer, unassigned) [Example 133-AB, 5-(4-Chloro-3-hydroxy-phenyl)-5-methyl-2-(8-(3,3,4,4,4-pentafluoro-butyl)-[1,2,4]triazolo-[1,5-a]pyrazin-6-yl)-4-[(3,3,3-trifluoro-2-hydroxypropyl)amino]-5,7-dihydro-6H-pyrrolo-[2,3-d]pyrimidin-6-one] | 9.24 |  | 3380 | 48 |
| CC1(c2ccc(Cl)c(O)c2)C(=O)Nc2nc(-c3cn4ccnc4c(Cc4ccc(F)cc4)n3)nc(N3CCC(F)(F)CC3)c21 (stereo not drawn) [Example 136-A, 5-(4-Chloro-3-hydroxy-phenyl)-4-(4,4-difluoro-piperidin-1-yl)-2-{8-[(4-fluorophenyl)methyl]-imidazo[1,2-a]pyrazin-6-yl}-5-methyl-5,7-dihydro-6H-pyrrolo[2,3-d]-pyrimidin-6-one] | 1.57 | 66 | 511 |  |
| CC(C)CCc1nc(-c2nc(N)c3c(n2)NC(=O)C3(C)c2ccc(C(F)(F)F)c(O)c2)cn2ccnc12 (stereo not drawn) [Example 64-B, 4-Amino-5-(3-hydroxy-4-(trifluoromethyl)phenyl)-2-(8-isopentylimidazo[1,2-a]pyrazin-6-yl)-5-methyl-5,7-dihydro-6H-pyrrolo[2,3-d]pyrimidin-6-one] | 2.22 | 125 | 1320 |  |
| CCCCc1nc(-c2nc(N)c3c(n2)NC(=O)C3(C)c2cc(O)c(Cl)c(F)c2)cn2ncnc12 (stereo not drawn) [Example 42-B, 4-Amino-2-(8-butyl-[1,2,4]triazolo[1,5-a]pyrazin-6-yl)-5-(4-chloro-3-fluoro-5-hydroxyphenyl)-5-methyl-5,7-dihydro-6H-pyrrolo[2,3-d]pyrimidin-6-one] | 0.496 | 170 | 146 |  |
| CC(C)CCc1nc(-c2nc(N)c3c(n2)NC(=O)C3(C)c2cc(O)c(Cl)cn2)cn2ccnc12 (stereo not drawn) [Example 57-B, 4-Amino-5-(5-chloro-4-hydroxypyridin-2-yl)-2-(8-isopentylimidazo[1,2-a]pyrazin-6-yl)-5-methyl-5,7-dihydro-6H-pyrrolo[2,3-d]pyrimidin-6-one] | 1.24 | 67 | 798 |  |
| CC(C)CCc1nc(-c2nc(N)c3c(n2)NC(=O)C3(C)c2cccc(O)c2)cn2ccnc12 (stereo not drawn) [Example 59-B, 4-Amino-5-(3-hydroxyphenyl)-2-(8-isopentylimidazo[1,2-a]pyrazin-6-yl)-5-methyl-5,7-dihydro-6H-pyrrolo[2,3-d]pyrimidin-6-one] | 1.72 | 109 | 335 |  |
| CC1(c2ccc(O)c(F)c2)C(=O)Nc2nc(-c3cn4ccnc4c(Cc4ccccc4F)n3)nc(N)c21 (stereo not drawn) [Example 24-B, 4-Amino-5-(3-fluoro-4-hydroxyphenyl)-2-{8-[(2-fluorophenyl)methyl]imidazo[1,2-a]pyrazin-6-yl}-5-methyl-5,7-dihydro-6H-pyrrolo[2,3-d]pyrimidin-6-one] | 0.241 | 88 | 752 |  |
| CC1(c2ccc(Cl)c(O)c2)C(=O)Nc2nc(-c3cn4ccnc4c(Cc4ccc(F)cc4)n3)nc(N)c21 (stereo not drawn) [Example 30-A, 4-Amino-5-(4-chloro-3-hydroxyphenyl)-2-{8-[(4-fluorophenyl)methyl]imidazo[1,2-a]pyrazin-6-yl}-5-methyl-5,7-dihydro-6H-pyrrolo[2,3-d]pyrimidin-6-one] | 0.292 | 88 | 866 |  |
| CC1(c2cc(O)c(Cl)c(F)c2)C(=O)Nc2nc(-c3cn4ccnc4c(Cc4cc(F)cc(F)c4)n3)nc(N)c21 (stereo not drawn) [Example 16-B, 4-Amino-5-(4-chloro-3-fluoro-5-hydroxyphenyl)-2-{8-[(3,5-difluorophenyl)methyl]imidazo[1,2-a]pyrazin-6-yl}-5-methyl-5,7-dihydro-6H-pyrrolo[2,3-d]pyrimidin-6-one] | 0.158 | 94 | 308 |  |
| CC1(c2ccc(C(F)(F)F)c(O)c2)C(=O)Nc2nc(-c3cn4ccnc4c(Cc4cc(F)cc(F)c4)n3)nc(N)c21 (stereo not drawn) [Example 46-B, 4-Amino-2-{8-[(3,5-difluorophenyl)methyl]imidazo[1,2-a]pyrazin-6-yl}-5-(3-hydroxy-4-(trifluoromethyl)phenyl)-5-methyl-5,7-dihydro-6H-pyrrolo[2,3-d]pyrimidin-6-one] | 0.691 | 117 | 893 |  |
| CC1(c2ccc(O)cc2)C(=O)Nc2nc(-c3cn4ccnc4c(CCC(F)(F)C(F)(F)F)n3)nc(N)c21 (stereo not drawn) [Example 81-B, 4-Amino-5-(4-hydroxyphenyl)-5-methyl-2-(8-(3,3,4,4,4-pentafluorobutyl)imidazo[1,2-a]pyrazin-6-yl)-5,7-dihydro-6H-pyrrolo[2,3-d]pyrimidin-6-one] | 14 | 131 | 352 |  |
| CC1(c2ccc(Cl)c(O)c2)C(=O)Nc2nc(-c3cn4ccnc4c(CCC(F)(F)C(F)(F)F)n3)nc(N)c21 (stereo not drawn) [Example 65-A, 4-Amino-5-(4-chloro-3-hydroxyphenyl)-5-methyl-2-(8-(3,3,4,4,4-pentafluorobutyl)imidazo[1,2-a]pyrazin-6-yl)-5,7-dihydro-6H-pyrrolo[2,3-d]pyrimidin-6-one] | 2.26 | 85 | 797 |  |
| CC1(c2ccc(Cl)c(O)c2)C(=O)Nc2nc(-c3cn4ccnc4c(CCCC(F)(F)F)n3)nc(N)c21 (stereo not drawn) [Example 55-A, 4-Amino-5-(4-chloro-3-hydroxyphenyl)-5-methyl-2-(8-(4,4,4-trifluorobutyl)imidazo[1,2-a]pyrazin-6-yl)-5,7-dihydro-6H-pyrrolo[2,3-d]pyrimidin-6-one] | 1.21 | 113 | 969 |  |
| CC1(c2ccc(O)c(F)c2)C(=O)Nc2nc(-c3cn4ccnc4c(Cc4cccc(Cl)c4)n3)nc(N)c21 (stereo not drawn) [Example 126-B, 4-Amino-2-{8-[(3-chlorophenyl)methyl]-imidazo[1,2-a]pyrazin-6-yl}-5-(3-fluoro-4-hydroxy-phenyl)-5-methyl-5,7-dihydro-6H-pyrrolo-[2,3-d]pyrimidin-6-one] | 1.1 | 206 | 391 |  |
| CC1(c2ccc(Cl)c(O)c2)C(=O)Nc2nc(-c3cn4ncnc4c(CCC(F)(F)C(F)(F)F)n3)nc(NCC(O)C(F)(F)F)c21 (single isomer, unassigned) [Example 133-AA, 5-(4-Chloro-3-hydroxy-phenyl)-5-methyl-2-(8-(3,3,4,4,4-pentafluoro-butyl)-[1,2,4]triazolo-[1,5-a]pyrazin-6-yl)-4-[(3,3,3-trifluoro-2-hydroxypropyl)amino]-5,7-dihydro-6H-pyrrolo-[2,3-d]pyrimidin-6-one] | 2.34 | 38 | 1290 |  |
